# Measurements from PMC12376458, “Multi-omics analysis reveals ACOT1 as the key target of piperine in Piper Longum-mediated gastric cancer treatment” (Chinese Medicine, 2025).
# Biological target: T1, ACOT1 (Acyl-CoA Thioesterase 1) (Homo sapiens, UniProt Q86TX2)
# T1 construct: endogenous protein in NP-40 cell lysate, western blot read-out; mouse MFC used for xenograft
# T1 sequence (Q86TX2 2-421): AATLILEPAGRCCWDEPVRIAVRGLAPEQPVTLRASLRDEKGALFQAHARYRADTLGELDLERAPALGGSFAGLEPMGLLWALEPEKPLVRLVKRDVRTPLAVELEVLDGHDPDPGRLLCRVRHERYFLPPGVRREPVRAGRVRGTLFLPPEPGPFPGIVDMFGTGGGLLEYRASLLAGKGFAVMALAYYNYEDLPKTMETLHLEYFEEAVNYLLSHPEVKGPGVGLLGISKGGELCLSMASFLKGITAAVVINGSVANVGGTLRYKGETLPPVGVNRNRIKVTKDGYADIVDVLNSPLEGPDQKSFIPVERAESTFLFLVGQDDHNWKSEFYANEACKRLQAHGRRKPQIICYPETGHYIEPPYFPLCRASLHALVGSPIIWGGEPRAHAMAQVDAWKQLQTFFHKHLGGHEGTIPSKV
# Test: cellular thermal shift assay (CETSA) in cell lysate, western blot
# Type: biochemical
# Settings: 60 μM piperine vs DMSO, 4 °C 5 h, then 35–60 °C for 3 min
compound,measurement,value
O=C(/C=C/C=C/c1ccc2c(c1)OCO2)N1CCCCC1 [piperine],"cellular thermal shift assay (CETSA) in cell lysate, western blot",CETSA experimental results showed that piperine treatment enhanced the thermal stability of ACOT1
